Laboratory results reported in paper PMC6179045, “Design, synthesis and biological evaluation of tricyclic pyrazolo[1,5-c][1,3]benzoxazin-5(5H)-one scaffolds as selective BuChE inhibitors” (Journal of Enzyme Inhibition and Medicinal Chemistry, 2018).
Like-named read-outs stand apart in the source and are kept apart here.

Legend:
[1] = tested on: differentiated PC12 cells; assay: Neuroprotective effect against H2O2-induced damage in differentiated PC12 cells; assay type: cell-based; conditions: Rattus norvegicus, PC-12, 25 µM compound 3 h before H2O2 (300 µM), 24 h, MTT, p < .05 vs. H2O2 alone, read-out: cell viability (neuroprotective activity)
Method: The differentiated PC12 cells and oxidative agent H2O2 were used as in vitro model to assess neuronal differentiation and neurobiochemical and neurobiological properties[39]^,[44]. Differentiated PC12 cells were incubated with different concentrations of compounds 6a and 6g for 3 h before treatment with H2O2 (300 µM). Cell viability was measured after 24 h using MTT method. Briefly, 20 µL of 0.5 mg/ml MTT reagent was added into the cells and incubated for 4 h. After 4 h, cell culture was removed and then 150 µl DMSO was added to dissolve the formazan. OD570 value was measured at 570 nm on the Biotek Synergy HTX Multi-Mode reader. Results were adjusted by OD570 value in the blank.
. The differentiated PC12 cells were pretreated with three concentrations (10, 25 and 50 µM) for 3 h, before treatment with H2O2 (300 µM), and cell viability was measured after 24 h using MTT method. […]. Neuroprotective activity of compounds 6a and 6g […] was evaluated by subjecting PC12 cells to H2O2-induced damage. […]

[2] = biological target: T1, AChE from electric eel (EeAChE) (Electrophorus electricus, UniProt O42275); assay: AChE activity assay (modified Ellman's method); assay type: biochemical; conditions: for IC50: mean ± SEM, n = 3
T1 construct: AChE from electric eel (C3389-500UN; Sigma); purchased Sigma C3389-500UN
Method: (§1) Enzymatic activity assays were performed on AChE from electric eel (C3389-500UN; Sigma) and BuChE from equine serum (C4290-1KU; Sigma), according to Ellman’s method with light modification. The experiment was performed in 48-well plates in a final volume of 500 µl. Each well contained 0.036 U/ml of EeAChE or eqBuChE, and 0.1 M pH = 8 phosphate buffer. They were incubated for 20 min at different concentrations of test compound at 37 °C. […] The DTNB produced the yellow anion 5-thio-2-nitrobenzoic acid along with the enzymatic degradation of acetylthiocholine or butyrylthiocholine. The absorbance of each assay was measured at 410 nm after 20 min in a Biotek Synergy HTX Multi-Mode reader. The IC50 values were calculated graphically from inhibition curves (log inhibitor concentration vs percent of inhibition). A control experiment was performed under the same conditions without inhibitor and the blank contained buffer, DMSO, DTNB and substrate.

[3] = Cytotoxicity MTT assay in PC12 cells; assay type: cell-based; conditions: rat, 1-50 µM, read-out: relative cell viability (cytotoxicity)
Method: PC12 cells were used to evaluate cell cytotoxicity by methyl thiazolyl tetrazolium (MTT) assay. PC12 cells were cultured in DMEM containing 10% fetal bovine serum, 100 µg/ml streptomycin and 100 units/ml penicillin at 37 °C in a 5% CO2 humidified atmosphere, and inoculated at 1 × 10^4 cells per well in 96-well plate. After cultured for 24 h, the cells were treated with different concentration of compounds in DMEM for 24 h. Then 20 µl of 0.5 mg/ml MTT reagent was added into the cells and incubated for 4 h. After 4 h, cell culture was removed and then 150 µl DMSO was added to dissolve the formazan. The optical density was measured at 570 nm (OD570). Cell viability was calculated from three independent experiments. OD570 of formazan in blank group was set as 100% of viability.
Blank: cultured with fresh medium only.

[4] = biological target: T2, BuChE from equine serum (eqBuChE) (Equus caballus, UniProt P81908); assay: BuChE activity assay (modified Ellman's method); assay type: biochemical, equine (horse); conditions: for IC50: mean ± SEM, n = 3; for inhibition at 20 µM / inhibition % at 20 µM BuChE: 20 µM compound
T2 construct: BuChE from equine serum (C4290-1KU; Sigma); purchased Sigma C4290-1KU; host or cells: equine serum
Method: as §1

eqBuChE = biological target: T3, eqBuChE (Equus caballus, UniProt P81908); assay: Kinetic study of eqBuChE inhibition (Lineweaver-Burk plots); assay type: biochemical, equine (horse); conditions: for type of BuChE inhibition: Lineweaver-Burk plots; for Ki: Lineweaver-Burk secondary plots, inhibitor 5, 10 and 20 µM, read-out: dissociation constant Ki against BuChE
T3 construct: BuChE from equine serum (C4290-1KU; Sigma); purchased Sigma C4290-1KU; host or cells: equine serum
Method: . The kinetic type of enzyme inhibition was obtained through the modified Ellman’s method and Lineweaver–Burk secondary plots. Apparent inhibition constants and kinetic parameters were calculated within the “Enzyme kinetics” module of Prism 5.
The kinetic studies were carried out at three fixed inhibitor concentrations (5, 10 and 20 µM).

[5] = Log P assessment (shake flask method, octanol/PBS); assay type: physicochemical; conditions: octanol/PBS pH 7.4, shake flask, 37 °C
Method: Log P, defined as the logarithm of octanol–water partition coefficient, is an important parameter to evaluate lipophilicity of compounds[45]. It can be calculated by determining the concentration of compound in octanol phase and water phase until the partition equilibrium was completed. In this work, log P of title compounds was measured by the shake flask method with slight modification. PBS (pH = 7.4) was used as the water. Both the octanol and the aqueous phase were saturated with each other before use. The assay mixture containing test compounds was shaken at 37 °C. After 24 h, the mixture was centrifuged at 4,000 rpm for 30 min, followed by the measurement with UV spectrophotometer. Experiments were conducted in triplicate and log p values were calculated.

[6] = AChE from electric eel, 20 µM compound, read-out: inhibition % at 20 µM AChE
[7] = BuChE from horse serum, read-out: inhibition at 20 µM BuChE
[8] = AChE from electric eel, 20 µM compound, read-out: inhibition at 20 µM AChE
[9] = BuChE from horse serum, read-out: inhibition % at 20 µM BuChE
[10] = AChE from electric eel, 20 µM compound

T3 sequence (P81908 whole entry): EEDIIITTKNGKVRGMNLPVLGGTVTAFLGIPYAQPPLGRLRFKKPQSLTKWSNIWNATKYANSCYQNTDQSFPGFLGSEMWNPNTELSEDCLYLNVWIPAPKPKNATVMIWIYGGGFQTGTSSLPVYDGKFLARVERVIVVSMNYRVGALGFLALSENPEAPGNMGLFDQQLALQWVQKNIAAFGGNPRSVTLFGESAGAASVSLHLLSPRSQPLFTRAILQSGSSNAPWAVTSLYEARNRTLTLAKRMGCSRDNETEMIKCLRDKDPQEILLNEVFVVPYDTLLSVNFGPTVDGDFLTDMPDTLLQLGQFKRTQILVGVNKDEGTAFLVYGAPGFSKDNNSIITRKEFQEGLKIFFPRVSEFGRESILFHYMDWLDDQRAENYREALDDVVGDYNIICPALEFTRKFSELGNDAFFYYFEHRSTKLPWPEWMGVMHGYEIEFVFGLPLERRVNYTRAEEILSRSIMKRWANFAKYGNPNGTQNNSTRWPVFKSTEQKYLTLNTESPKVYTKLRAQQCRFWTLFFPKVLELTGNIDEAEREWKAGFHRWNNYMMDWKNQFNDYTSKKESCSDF
T2 sequence (P81908 whole entry): as above
T1 sequence (O42275 24-633): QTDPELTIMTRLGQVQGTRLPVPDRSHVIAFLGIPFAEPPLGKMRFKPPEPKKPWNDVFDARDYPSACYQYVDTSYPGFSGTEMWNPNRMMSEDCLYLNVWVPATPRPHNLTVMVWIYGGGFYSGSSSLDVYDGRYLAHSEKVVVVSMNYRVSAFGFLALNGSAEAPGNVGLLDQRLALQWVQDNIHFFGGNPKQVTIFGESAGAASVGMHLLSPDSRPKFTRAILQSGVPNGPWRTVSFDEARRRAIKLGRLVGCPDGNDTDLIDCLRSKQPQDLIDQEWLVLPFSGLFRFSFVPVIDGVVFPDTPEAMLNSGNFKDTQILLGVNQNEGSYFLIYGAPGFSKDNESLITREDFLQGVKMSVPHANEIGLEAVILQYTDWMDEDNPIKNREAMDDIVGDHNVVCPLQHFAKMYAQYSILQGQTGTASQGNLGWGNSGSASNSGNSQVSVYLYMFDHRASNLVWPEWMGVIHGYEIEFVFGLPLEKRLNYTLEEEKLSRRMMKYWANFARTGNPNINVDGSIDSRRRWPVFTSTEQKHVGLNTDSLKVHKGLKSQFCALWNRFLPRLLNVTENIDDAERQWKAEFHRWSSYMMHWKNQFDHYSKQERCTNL

With CC1=NN2C(=O)Oc3ccc(Br)cc3C2C1 (centres unmarked) [Compound 6g, 9-Bromo-2-methyl-1,10b-dihydro-5H-pyrazolo[1,5-c][1,3]benzoxazin-5-one] the viability at 25 µM [1] was > 70%, the inhibition at 20 µM [2, 6] was 26 ± 1% and the viability at 24 h [3] was > 90%. The IC50 ([4]; BuChE from horse serum) was 1.63 ± 0.34 µM, the “type of BuChE inhibition” value (eqBuChE) was “mixed-type inhibition” and the Ki (eqBuChE) was 3.09 µM. For the same compound, the logP at 24 h [5] was 1.63.

In the case of CC1=NN2C(=S)Oc3c(Cl)cc(Cl)cc3C2C1 (centres unmarked) [Compound 6b, 7,9-Dichloro-2-methyl-1,10b-dihydro-5H-pyrazolo[1,5-c][1,3]benzoxazin-5-thione], the inhibition at 20 µM [2, 6] is reported as 25 ± 1% and the inhibition at 20 µM [4, 7] is reported as < 0%.

In the case of CC1=NN2C(=S)Oc3ccccc3C2C1 (centres unmarked) [Compound 6p, 2-Methyl-1,10b-dihydro-5H-pyrazolo[1,5-c][1,3]benzoxazin-5-thione], the inhibition at 20 µM [2, 8] is reported as < 0% and the inhibition at 20 µM [4, 7] is reported as < 0%.

For CC1=NN2C(=O)Oc3c(Br)cc(Br)cc3C2C1 (centres unmarked) [Compound 6c, 7,9-Dibromo-2-methyl-1,10b-dihydro-5H-pyrazolo[1,5-c][1,3]benzoxazin-5-one], the IC50 ([2]; AChE from electric eel) was 10.7 ± 0.64 µM, the IC50 ([4]; BuChE from horse serum) was 1.63 ± 0.42 µM and the logP at 24 h [5] was 1.48.

For CC1=NN2C(=S)Oc3ccc(C)cc3C2C1 (centres unmarked) [Compound 6n, 2,9-Dimethyl-1,10b-dihydro-5H-pyrazolo[1,5-c][1,3]benzoxazin-5-thione], the inhibition at 20 µM [2, 6] was 15 ± 2% and the inhibition at 20 µM [4, 7] was < 0%.

For COc1cccc2c1OC(=S)N1N=C(C)CC21 (centres unmarked) [Compound 6l, 2-Methyl-7-methoxy-1,10b-dihydro-5H-pyrazolo[1,5-c][1,3]benzoxazin-5-thione], the inhibition at 20 µM [2, 6] was 30 ± 2% and the inhibition at 20 µM [4, 9] was 2 ± 2%.

For S=C1Oc2ccccc2C2CC(c3ccccc3)=NN12 (centres unmarked) [Compound 3b, 2-Phenyl-1,10b-dihydro-5H-pyrazolo[1,5-c][1,3]benzoxazin-5-thione], the inhibition at 20 µM [2, 8] was < 0% and the inhibition at 20 µM [4, 9] was 9 ± 3%.

In the case of Cc1ccc(C2=NN3C(=O)Oc4ccc(Cl)cc4C3C2)cc1 (centres unmarked) [Compound 3e, 9-Chloro-2-(4-methyl)phenyl-1,10b-dihydro-5H-pyrazolo[1,5-c][1,3]benzoxazin-5-one], the “inhibition % at 20 µM AChE” value [2, 10] is reported as 32 ± 2% and the “inhibition % at 20 µM BuChE” value ([4]; BuChE from horse serum) is reported as 32 ± 5%.

For CC1=NN2C(=S)Oc3c(Br)cc(Cl)cc3C2C1 (centres unmarked) [Compound 6j, 7-Bromo-9-chloro-2-methyl-1,10b-dihydro-5H-pyrazolo[1,5-c][1,3]benzoxazin-5-thione], the inhibition at 20 µM [2, 6] was 14 ± 2% and the inhibition at 20 µM [4, 7] was < 0%.

For Cc1ccc(C2=NN3C(=O)Oc4ccccc4C3C2)cc1 (centres unmarked) [Compound 3f, 2–(4-Methyl)phenyl-1,10b-dihydro-5H-pyrazolo[1,5-c][1,3]benzoxazin-5-one], the “inhibition % at 20 µM AChE” value [2, 10] was 48 ± 3% and the “inhibition % at 20 µM BuChE” value ([4]; BuChE from horse serum) was 32 ± 2%.

With O=C1Oc2ccccc2C2CC(c3ccccc3)=NN12 (centres unmarked) [Compound 3a, 2-Phenyl-1,10b-dihydro-5H-pyrazolo[1,5-c][1,3]benzoxazin-5-one] the inhibition at 20 µM [2, 8] was < 0% and the IC50 ([4]; BuChE from horse serum) was 9.47 ± 0.23 µM.

In the case of CC1=NN2C(=O)Oc3c(Br)cc(Cl)cc3C2C1 (centres unmarked) [Compound 6i, 7-Bromo-9-chloro-2-methyl-1,10b-dihydro-5H-pyrazolo[1,5-c][1,3]benzoxazin-5-one], the IC50 ([2]; AChE from electric eel) is reported as 13 ± 0.32 µM and the IC50 ([4]; BuChE from horse serum) is reported as 2.44 ± 0.44 µM.

For CC1=NN2C(=O)Oc3c(Br)cccc3C2C1 (centres unmarked) [Compound 6q, 7-Bromo-2-methyl-1,10b-dihydro-5H-pyrazolo[1,5-c][1,3]benzoxazin-5-one], the inhibition at 20 µM [2, 8] was < 0% and the IC50 ([4]; BuChE from horse serum) was 3.22 ± 1.06 µM.

For CC1=NN2C(=O)Oc3ccc(C)cc3C2C1 (centres unmarked) [Compound 6m, 2,9-Dimethyl-1,10b-dihydro-5H-pyrazolo[1,5-c][1,3]benzoxazin-5-one], the inhibition at 20 µM [2, 8] was < 0%, the “inhibition % at 20 µM BuChE” value ([4]; BuChE from horse serum) was 14 ± 1% and the inhibition at 20 µM [4, 9] was < 20%.

In the case of CC1=NN2C(=O)Oc3c(Cl)cc(Cl)cc3C2C1 (centres unmarked) [Compound 6a, 7,9-Dichloro-2-methyl-1,10b-dihydro-5H-pyrazolo[1,5-c][1,3]benzoxazin-5-one], the viability at 25 µM [1] is reported as > 70%, the inhibition at 20 µM [2, 6] is reported as 39 ± 3% and the viability at 24 h [3] is reported as > 90%. For the same compound, the IC50 ([4]; BuChE from horse serum) was 1.06 ± 0.11 µM, the “type of BuChE inhibition” value (eqBuChE) was “mixed-type inhibition” and the Ki (eqBuChE) was 7.46 µM. For the same compound, the logP at 24 h [5] was 1.5.

For CC1=NN2C(=S)Oc3ccc(Cl)cc3C2C1 (centres unmarked) [Compound 6f, 9-Chloro-2-methyl-1,10b-dihydro-5H-pyrazolo[1,5-c][1,3]benzoxazin-5-thione], the inhibition at 20 µM [2, 6] was 18 ± 2% and the inhibition at 20 µM [4, 7] was < 0%.

Compound CC1=NN2C(=O)Oc3ccc(Cl)cc3C2C1 (centres unmarked) [Compound 6e, 9-Chloro-2-methyl-1,10b-dihydro-5H-pyrazolo[1,5-c][1,3]benzoxazin-5-one] has an inhibition at 20 µM [2, 6] of 16 ± 1% and an IC50 ([4]; BuChE from horse serum) of 6.29 ± 0.65 µM.

In the case of CC1=NN2C(=S)Oc3ccc(Br)cc3C2C1 (centres unmarked) [Compound 6h, 9-Bromo-2-methyl-1,10b-dihydro-5H-pyrazolo[1,5-c][1,3]benzoxazin-5-thione], the inhibition at 20 µM [2, 6] is reported as 27 ± 2% and the inhibition at 20 µM [4, 7] is reported as < 0%.

In the case of COc1cccc2c1OC(=O)N1N=C(C)CC21 (centres unmarked) [Compound 6k, 2-Methyl-7-methoxy-1,10b-dihydro-5H-pyrazolo[1,5-c][1,3]benzoxazin-5-one], the inhibition at 20 µM [2, 6] is reported as 35 ± 3%, the “inhibition % at 20 µM BuChE” value ([4]; BuChE from horse serum) is reported as 14 ± 3% and the inhibition at 20 µM [4, 9] is reported as < 20%.

In the case of O=C1Oc2ccc(Cl)cc2C2CC(c3ccc(Cl)cc3)=NN12 (centres unmarked) [Compound 3d, 9-Chloro-2-(4-chloro)phenyl-1,10b-dihydro-5H-pyrazolo[1,5-c][1,3]benzoxazin-5-one], the “inhibition % at 20 µM AChE” value [2, 10] is reported as 39 ± 1% and the “inhibition % at 20 µM BuChE” value ([4]; BuChE from horse serum) is reported as 41 ± 6%.

For CC1=NN2C(=O)Oc3ccccc3C2C1 (centres unmarked) [Compound 6o, 2-Methyl-1,10b-dihydro-5H-pyrazolo[1,5-c][1,3]benzoxazin-5-one], the inhibition at 20 µM ([2]; read-out: inhibition at 20 µM AChE) was < 0% and the inhibition at 20 µM ([4]; read-out: inhibition % at 20 µM BuChE, BuChE from horse serum) was 50.1 ± 4.3%.

For O=C1Oc2ccccc2C2CC(c3ccc(F)cc3)=NN12 (centres unmarked) [Compound 3c, 2-(4-Fluoro)phenyl-1,10b-dihydro-5H-pyrazolo[1,5-c][1,3]benzoxazin-5-one], the “inhibition % at 20 µM AChE” value [2, 10] was 15 ± 3% and the “inhibition % at 20 µM BuChE” value ([4]; BuChE from horse serum) was 15 ± 2%.

In the case of CC1=NN2C(=S)Oc3c(Br)cc(Br)cc3C2C1 (centres unmarked) [Compound 6d, 7,9-Dibromo-2-methyl-1,10b-dihydro-5H-pyrazolo[1,5-c][1,3]benzoxazin-5-thione], the inhibition at 20 µM [2, 6] is reported as 26 ± 3% and the inhibition at 20 µM [4, 7] is reported as < 0%.
